From PMC3185947 (British Journal of Cancer, 2011)
Read-outs that look alike come from different tables or passages of the source. Marks after values point to notes of the source that are not given here.

Conditions: in vivo; for OSI-420 AUC0–24 / OSI-420 Cmax / OSI-420 Tmax, median (range) / OSI-420 Tmax: human
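Further: pharmacokinetic parameters derived by non-compartmental analysis.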

C#Cc1cccc(Nc2ncnc3cc(OCCOC)c(OCCO)cc23)c1 [OSI-420]
OSI-420 AUC0–24 (150 mg): 2.56 (0.599–10.5) ^a μg h ml^−1
OSI-420 Cmax (150 mg): 0.165 (0.0452–0.568) μg ml^−1
OSI-420 Tmax, median (range) (150 mg): 4.0 (1.05–23.9) h
OSI-420 AUC0–24 (200 mg): 4.55 (0.996–19.2) μg h ml^−1
OSI-420 Cmax (200 mg): 0.278 (0.0617–0.864) μg ml^−1
OSI-420 Tmax, median (range) (200 mg): 2.0 (1.00–24.0) h
OSI-420 AUC0–24 (225 mg): 4.10 (1.57–19.7) μg h ml^−1
OSI-420 Cmax (225 mg): 0.260 (0.116–0.908) μg ml^−1
OSI-420 Tmax, median (range) (225 mg): 2.0 (0.930–8.00) h
OSI-420 AUC0–24 (250 mg): 3.32 (1.52–16.4) μg h ml^−1
OSI-420 Cmax (250 mg): 0.219 (0.119–0.760) μg ml^−1
OSI-420 Tmax, median (range) (250 mg): 4.0 (1.00–8.00) h
OSI-420 AUC0–24 (275 mg): 3.62 (1.51–15.7) μg h ml^−1
OSI-420 Cmax (275 mg): 0.223 (0.107–0.929) μg ml^−1
OSI-420 Tmax, median (range) (275 mg): 2.0 (1.00–8.02) h
OSI-420 AUC0–24 (300 mg): 4.23 (1.38–6.32) μg h ml^−1
OSI-420 Cmax (300 mg): 0.273 (0.133–0.346) μg ml^−1
OSI-420 Tmax, median (range) (300 mg): 2.0 (1.00–2.03) h
OSI-420 AUC0–24 (325 mg): 4.18 (2.26, 6.09) μg h ml^−1
OSI-420 Cmax (325 mg): 0.344 (0.222, 0.426) μg ml^−1
OSI-420 Tmax, median (range) (325 mg): 1.5 (2.00, 1.00) h
OSI-420 AUC0–24 (350 mg): 2.33 (2.94, 1.72) μg h ml^−1
OSI-420 Cmax (350 mg): 0.169 (0.243, 0.0945) μg ml^−1
OSI-420 Tmax, median (range) (350 mg): 2.0 (2.00, 2.03) h
OSI-420 AUC0–24 (375 mg): 3.80 µg·h/mL
OSI-420 Cmax (375 mg): 0.253 µg/mL
OSI-420 Tmax (375 mg): 1.0 h
OSI-420 AUC0–24 (400 mg): 6.84 µg·h/mL
OSI-420 Cmax (400 mg): 0.454 µg/mL
OSI-420 Tmax (400 mg): 2.0 h
OSI-420 AUC0–24 (425 mg): 5.02 µg·h/mL
OSI-420 Cmax (425 mg): 0.293 µg/mL
OSI-420 Tmax (425 mg): 2.0 h
OSI-420 AUC0–24 (450 mg): 8.78 µg·h/mL
OSI-420 Cmax (450 mg): 0.489 µg/mL
OSI-420 Tmax (450 mg): 4.0 h
Interpatient and intrapatient variability of PK: High
